One assay concerns the target T1, human arginase I (ARG I) (Homo sapiens, UniProt P05089).
T1 sequence (P05089 1-322): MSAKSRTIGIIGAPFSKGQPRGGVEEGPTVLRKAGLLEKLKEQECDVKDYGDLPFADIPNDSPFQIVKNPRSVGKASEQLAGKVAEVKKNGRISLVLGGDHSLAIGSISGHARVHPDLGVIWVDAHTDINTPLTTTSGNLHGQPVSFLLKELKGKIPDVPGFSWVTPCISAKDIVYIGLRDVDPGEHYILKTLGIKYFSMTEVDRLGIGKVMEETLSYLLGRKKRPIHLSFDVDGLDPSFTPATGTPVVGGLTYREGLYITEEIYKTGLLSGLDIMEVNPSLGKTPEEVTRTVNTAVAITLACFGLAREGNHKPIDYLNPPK
Nature of the assay: Inhibition of arginase I, spectrophotometric urea assay at 530 nm. In kind it is biochemical. Conditions: read-out: Potency (ARG I). In a few lines: (§1)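 IC50 was derived by regression of OD530 normalized to uninhibited-enzyme controls against log concentration. Urea from 60-min, 37 °C turnover of L-arginine with manganese sulfate was detected after acid o-phthaldialdehyde/primaquine quench and 10 min colour development. Arginase I and II came from 100 ng/ml stocks in pH 7.4 phosphate with ovalbumin.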

The target in a further assay is T2, arginase II (ARG II) (Homo sapiens, UniProt P78540).
T2 sequence (P78540 23-354): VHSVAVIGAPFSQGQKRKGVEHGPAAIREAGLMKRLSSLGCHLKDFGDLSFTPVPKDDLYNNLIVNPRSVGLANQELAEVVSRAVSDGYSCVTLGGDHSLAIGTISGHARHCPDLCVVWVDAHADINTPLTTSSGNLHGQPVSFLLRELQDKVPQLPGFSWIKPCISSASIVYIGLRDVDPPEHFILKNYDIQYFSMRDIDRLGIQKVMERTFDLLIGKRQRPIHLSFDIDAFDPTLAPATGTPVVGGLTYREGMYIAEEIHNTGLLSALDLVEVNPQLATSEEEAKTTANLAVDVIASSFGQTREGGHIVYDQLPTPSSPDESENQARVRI
Nature of the assay: Inhibition of arginase II, spectrophotometric urea assay at 530 nm. In kind it is biochemical. The procedure, abridged:
as §1

Setting [1] is: Formula II compounds, Table 2-A.
The mark [2] stands for this setting: Formula II compounds, Table 2-A, read-out: Potency (ARG).
The mark [3] stands for this setting: Formula I compounds, Table 2, read-out: Potency (ARG II).

The text below walks through data of patent US9994594B2, “Inhibitors of arginase and their therapeutic applications” (MARS, INCORPORATED, priority 2010, dated 2018).

Structures can show the parent of a compound that is named as a salt. Where two headings read alike, the source gives them in different places.

As for `NC(CCCCB(O)O)(C(=O)O)C1CCN(C(=O)Nc2ccc(Cl)cc2)CC1` (stereo not shown) [32-A, 2-amino-6-borono-2-{1-[(4-chlorophenyl)-carbamoyl]piperidin-4-yl}hexanoic acid hydrochloride], the IC50 on human arginase I (ARG I) (setting [1]) and at arginase II (ARG II) (setting [2]) was 251 to 1000 nM each time.

Turning to `CNC(CCCCB(O)O)(CCCNCc1ccc(Cl)cc1)C(=O)O` (stereo not shown) [compound 139, 6-borono-2-(3-(4-chlorobenzylamino)propyl)-2-(methylamino)hexanoic acid dihydrochloride], the IC50 fell in the range of 0.1 to 250 nM on human arginase I (ARG I) (Formula I compounds, Table 2) and 0.1 to 250 nM on arginase II (ARG II) (setting [3]).

Turning to `CNC(CCCCB(O)O)C(=O)O` (stereo not shown) [compound 146, 6-borono-2-(methylamino)hexanoic acid hydrochloride], the IC50 lay within 1000 to 2000 nM at human arginase I (ARG I) (Formula I compounds, Table 2) and 2000 to 5000 nM at arginase II (ARG II) (setting [3]).

Regarding `CC(CC(N)(CCCCB(O)O)C(=O)O)N1CCC(Cc2ccccc2)CC1` (stereo not shown) [compound 124, 2-amino-2-(2-(4-benzylpiperidin-1-yl)propyl)-6-boronohexanoic acid dihydrochloride], the IC50 fell in the range of 251 to 1000 nM on human arginase I (ARG I) (Formula I compounds, Table 2) and 2000 to 5000 nM on arginase II (ARG II) (setting [3]).

`COC[C@@H]1CCCN1CC[C@](N)(CCCCB(O)O)C(=O)O` [compound 2, (R)-2-amino-6-borono-2-(2-((S)-2-(methoxymethyl)pyrrolidin-1-yl)ethyl)hexanoic acid dihydrochloride]: the IC50 at human arginase I (ARG I) (Formula I compounds, Table 2) is 251 to 1000 nM; on arginase II (ARG II) (setting [3]), 251 to 1000 nM.

Take `NC(CCCCB(O)O)(CCC1Cc2ccccc2CN1CC1CCCCC1)C(=O)O` (stereo not shown) [compound 134, 2-amino-6-borono-2-(2-(2-(cyclohexylmethyl)-1,2,3,4-tetrahydroisoquinolin-3-yl)ethyl)hexanoic acid dihydrochloride]: the IC50 at human arginase I (ARG I) (Formula I compounds, Table 2) lay within 0.1 to 250 nM; on arginase II (ARG II) (setting [3]) it was 251 to 1000 nM.

As to `NC(CCCCB(O)O)(CCN1CCC(C(=O)O)CC1)C(=O)O` (stereo not shown) [compound 21, 1-(3-amino-7-borono-3-carboxyheptyl)piperidine-4-carboxylic acid], the IC50 on human arginase I (ARG I) (Formula I compounds, Table 2) was 1000 to 2000 nM; on arginase II (ARG II) (setting [3]), 1000 to 2000 nM.

As to `NC(CCCCB(O)O)(C(=O)O)C1CCN(Cc2ccccc2-c2cccnc2)CC1` (stereo not shown) [Example 57-A, 2-amino-6-borono-2-(1-(2-(pyridin-3-yl)benzyl)piperidin-4-yl)hexanoic acid dihydrochloride], the IC50 at human arginase I (ARG I) (setting [1]) was in the range of 0.1 to 250 nM; on arginase II (ARG II) (setting [2]), 251 to 1000 nM.

Turning to `COCCN1CCN(CCC(N)(CCCCB(O)O)C(=O)O)CC1` (stereo not shown) [compound 77, 2-amino-6-borono-2-(2-(4-(2-methoxyethyl)piperazin-1-yl)ethyl)hexanoic acid trihydrochloride], the IC50 on human arginase I (ARG I) (Formula I compounds, Table 2) is 2000 to 5000 nM; at arginase II (ARG II) (setting [3]), greater than 5000 nM.

As to `CC(N)(CCCCB(O)O)C(=O)O` (stereo not shown) [compound 97, 2-Amino-6-borono-2-methylhexanoic acid hydrochloride], the IC50 at human arginase I (ARG I) (Formula I compounds, Table 2) was 2000 to 5000 nM; on arginase II (ARG II) (setting [3]), greater than 5000 nM.

`NC(CCCCB(O)O)(C(=O)O)C1CCN(C(=S)NCc2ccc(Cl)cc2)CC1` (stereo not shown) [Example 43-A, 2-amino-6-borono-2-(1-(4-chlorobenzylcarbamothioyl)piperidin-4-yl)hexanoic acid]: the IC50 at human arginase I (ARG I) (setting [1]) lay within 251 to 1000 nM; on arginase II (ARG II) (setting [2]), 1000 to 2000 nM.

Take `NC(CCCCB(O)O)(CCNC(=S)Nc1ccc(Cl)c(Cl)c1)C(=O)O` (stereo not shown) [compound 119, 2-amino-6-borono-2-(2-(3-(3,4-dichlorophenyl)thioureido)ethyl)hexanoic acid hydrochloride]: the IC50 lay within 251 to 1000 nM on human arginase I (ARG I) (Formula I compounds, Table 2) and 1000 to 2000 nM at arginase II (ARG II) (setting [3]).

`Cc1ccc(NC(=S)N2CCC(C(N)(CCCCB(O)O)C(=O)O)CC2)cc1Cl` (stereo not shown) [Example 44-A, 2-amino-6-borono-2-(1-(3-chloro-4-methylphenylcarbamothioyl)piperidin-4-yl)hexanoic acid]: the results for the IC50 on human arginase I (ARG I) (setting [1]) and at arginase II (ARG II) (setting [2]) were 251 to 1000 nM and 1000 to 2000 nM, respectively.

As for `NC(CCCCB(O)O)(C(=O)O)C1CCN(Cc2ccc(Cl)c(Cl)c2)CC1` (stereo not shown) [Example 95-A, 2-amino-6-borono-2-(1-(3,4-dichlorobenzyl)piperidin-4-yl)hexanoic acid dihydrochloride], the IC50 at human arginase I (ARG I) (setting [1]) lay in the range of 0.1 to 250 nM; at arginase II (ARG II) (setting [2]), 251 to 1000 nM.
